We go through 25 molecules from patent publication US10246465B2 (priority 2014, dated 2019).

Molecules are shown by their SMILES. A value given as a limit tells only on which side of the number the result lay.

Sequence of human σ1 receptor (Q99720 whole entry): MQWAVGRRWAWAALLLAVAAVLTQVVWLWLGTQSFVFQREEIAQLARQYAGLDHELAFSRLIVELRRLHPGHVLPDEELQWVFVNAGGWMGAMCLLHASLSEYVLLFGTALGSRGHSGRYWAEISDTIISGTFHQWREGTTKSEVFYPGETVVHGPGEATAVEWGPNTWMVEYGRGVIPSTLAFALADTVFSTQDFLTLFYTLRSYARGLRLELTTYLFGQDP

The target in one test is human σ1 receptor (Homo sapiens, UniProt Q99720). Briefly: biochemical. As to conditions: one combined class from Ki at human σ1 receptor (A1) and Ki at human μ-opioid receptor (A2). Also noted: μ and σ1 dual binding: key to the marks not given beside the values. It is filed as binding. As for the experimental part:
Human σ1 Receptor Radioligand Assay
The assay was carried out with 7 μg of membrane suspension, 5 nM of [^3H](+)-pentazocine in either absence or presence of either buffer or 10 μM Haloperidol for total and non-specific binding, respectively. Binding buffer contained Tris-HCl 50 mM at pH 8. Plates were incubated at 37° C. for 120 minutes. After the incubation period, the reaction mix was then transferred to MultiScreen HTS, FC plates (Millipore), filtered and plates were washed 3 times with ice-cold 10 mM Tris-HCL (pH7.4). Filters were dried and counted at approximately 40% efficiency in a MicroBeta scintillation counter (Perkin-Elmer) using EcoScint liquid scintillation cocktail
For the molecule `CCN1CC2(CCN(CCc3ccccc3O)CC2)OC2(CC2)C1=O` [Example 60, 12-ethyl-8-(2-hydroxyphenethyl)-4-oxa-8,12-diazadispiro[2.1.5.3]tridecan-13-one], the “μ and σ1 dual binding” value is “++”.
Still for that read-out and setting: the value for `C[C@H]1OC2(CCN(CCc3cccc(F)c3F)CC2)CN(C2CC2)C1=O` [Example 91, (R)-4-cyclopropyl-9-(2,3-difluorophenethyl)-2-methyl-1-oxa-4,9-diazaspiro[5.5]undecan-3-one] was “++”; that for `CCN1CC2(CCN(CCc3ccncc3)CC2)OC2(CC2)C1=O` [Example 23, 12-ethyl-8-[2-(pyridin-4-yl)ethyl]-4-oxa-8,12-diazadispiro[2.1.5.3]tridecan-13-one] was “++”; that for `CC(C)N1CC2(CCN(CCc3c(F)cccc3F)CC2)O[C@H](C)C1=O.Cl` [Example 49, (R)-9-(2,6-difluorophenethyl)-4-isopropyl-2-methyl-1-oxa-4,9-diazaspiro[5.5]undecan-3-one hydrochloride] was “++”.
As for `CCN1CC2(CCN(CCc3ccc(C(=O)NC)cc3)CC2)OC2(CC2)C1=O.Cl` [Example 59, 4-(2-{12-ethyl-13-oxo-4-oxa-8,12-diazadispiro[2.1.5.3]tridecan-8-yl}ethyl)-N-methylbenzamide hydrochloride], the “μ and σ1 dual binding” value was “++”.
Consider `CCN1CC2(CCN(CCc3cccc(N)n3)CC2)OC2(CC2)C1=O` [Example 6, 8-[2-(6-aminopyridin-2-yl)ethyl]-12-ethyl-4-oxa-8,12-diazadispiro[2.1.5.3]tridecan-13-one], for which the “μ and σ1 dual binding” value is recorded as “++”.
Same read-out and setting: the same measure for `CCN1CC2(CCN(CCc3ccc(O)cc3)CC2)OC2(CC2)C1=O.Cl` [Example 62, 12-ethyl-8-(4-hydroxyphenethyl)-4-oxa-8,12-diazadispiro[2.1.5.3]tridecan-13-one hydrochloride]: “++”; for `CCN1CC2(CCN(CCc3cccc(F)c3F)CC2)OC(C)(C)C1=O` [Example 89, 9-(2,3-difluorophenethyl)-4-ethyl-2,2-dimethyl-1-oxa-4,9-diazaspiro[5.5]undecan-3-one]: “++”; for `C[C@H]1OC2(CCN(CCc3cc(F)ccc3F)CC2)CN(C)C1=O` [Example 81, (R)-9-(2,5-difluorophenethyl)-2,4-dimethyl-1-oxa-4,9-diazaspiro[5.5]undecan-3-one]: “++”.
Take `CN1CC2(CCN(CCc3ccccc3F)CC2)OC2(CC2)C1=O.Cl` [Example 29, 8-[2-fluorophenethyl]-12-methyl-4-oxa-8,12-diazadispiro[2.1.5.3]tridecan-13-one hydrochloride]: the “μ and σ1 dual binding” value is on record as “++”.
Regarding `CC1(C)OC2(CCN(CCc3cccc(F)c3F)CC2)CN(C2CC2)C1=O` [Example 85, 4-cyclopropyl-9-(2,3-difluorophenethyl)-2,2-dimethyl-1-oxa-4,9-diazaspiro[5.5]undecan-3-one], the “μ and σ1 dual binding” value is given as “++”.
As for `CCN1CC2(CCN(CCc3ncccc3F)CC2)OC2(CC2)C1=O.Cl` [Example 3, 12-ethyl-8-[2-(3-fluoropyridin-2-yl)ethyl]-4-oxa-8,12-diazadispiro[2.1.5.3]tridecan-13-one hydrochloride], the “μ and σ1 dual binding” value was “++”.
On to `C[C@H]1OC2(CCN(CCc3cccc(F)c3F)CC2)CN(C)C1=O` [Example 74, (R)-9-(2,3-difluorophenethyl)-2,4-dimethyl-1-oxa-4,9-diazaspiro[5.5]undecan-3-one], for which the “μ and σ1 dual binding” value is recorded as “++”.
In the case of `C[C@H]1OC2(CCN(CCc3ccccc3C(F)(F)F)CC2)CN(C)C1=O.Cl` [Example 48, (R)-2,4-dimethyl-9-(2-(trifluoromethyl)phenethyl)-1-oxa-4,9-diazaspiro[5.5]undecan-3-one hydrochloride], the “μ and σ1 dual binding” value is listed as “++”.
On to `CCN1CC2(CCN(CCc3cccc(NC(N)=O)c3)CC2)OC2(CC2)C1=O` [Example 58, [3-(2-{12-ethyl-13-oxo-4-oxa-8,12-diazadispiro[2.1.5.3]tridecan-8-yl}ethyl)phenyl]urea], for which the “μ and σ1 dual binding” value is listed as “++”.
Still for that read-out and setting: the value for `CCN1CC2(CCN(CCc3ncccc3Cl)CC2)OC2(CC2)C1=O.Cl` [Example 5, 8-[2-(3-chloropyridin-2-yl)ethyl]-12-ethyl-4-oxa-8,12-diazadispiro[2.1.5.3]tridecan-13-one hydrochloride] was “++”; that for `CCN1CC2(CCN(CCc3cccc(F)c3F)CC2)O[C@H](C)C1=O` [Example 87, (R)-9-(2,3-difluorophenethyl)-4-ethyl-2-methyl-1-oxa-4,9-diazaspiro[5.5]undecan-3-one] was “++”.
The same measure, in the same setting: the same measure for `CN1CC2(CCN(CCc3ccccc3)CC2)O[C@H](Cc2ccccc2)C1=O` [Example 95, (R)-2-benzyl-4-methyl-9-phenethyl-1-oxa-4,9-diazaspiro[5.5]undecan-3-one]: “++”; for `CN1CC2(CCN(CCc3ccccc3)CC2)O[C@H](CCO)C1=O` [Example 94, (R)-2-(2-hydroxyethyl)-4-methyl-9-phenethyl-1-oxa-4,9-diazaspiro[5.5]undecan-3-one]: “++”; for `CN1CC2(CCN(CCc3ccccc3)CC2)OC(C)(C)C1=O.Cl` [Example 54, 2,2,4-trimethyl-9-phenethyl-1-oxa-4,9-diazaspiro[5.5]undecan-3-one hydrochloride]: “++”.
Regarding `CCN1CC2(CCN(CCc3cc(C(F)(F)F)ccn3)CC2)OC2(CC2)C1=O.Cl` [Example 4, 12-ethyl-8-{2-[4-(trifluoromethyl)pyridin-2-yl]ethyl}-4-oxa-8,12-diazadispiro[2.1.5.3]tridecan-13-one hydrochloride], the “μ and σ1 dual binding” value was “++”.
Consider `CCN1CC2(CCN(CCc3cccc(NC(C)=O)c3)CC2)OC2(CC2)C1=O` [Example 57, N-[3-(2-{12-ethyl-13-oxo-4-oxa-8,12-diazadispiro[2.1.5.3]tridecan-8-yl}ethyl)phenyl]acetamide], for which the “μ and σ1 dual binding” value was “++”.
The same measure, in the same setting: the value for `CCN1CC2(CCN(CCc3cccc(C#N)c3)CC2)OC2(CC2)C1=O.Cl` [Example 27, 3-(2-{12-ethyl-13-oxo-4-oxa-8,12-diazadispiro[2.1.5.3]tridecan-8-yl}ethyl)benzonitrile hydrochloride] was “++”.
For `C[C@H]1OC2(CCN(CCc3ccccc3OC(F)(F)F)CC2)CN(C)C1=O.Cl` [Example 45, (R)-2,4-dimethyl-9-(2-(trifluoromethoxy)phenethyl)-1-oxa-4,9-diazaspiro[5.5]undecan-3-one hydrochloride], the “μ and σ1 dual binding” value is listed as “++”.

The same test, now with this note: one combined class from Ki at human σ1 receptor (A1) and Ki at human μ-opioid receptor (A2); read-out: μ and σ1 dual binding.
Regarding `CCN1CC2(CCN(CCc3cccc(N)c3)CC2)OC2(CC2)C1=O` [Example 56, 8-(3-aminophenethyl)-12-ethyl-4-oxa-8,12-diazadispiro[2.1.5.3]tridecan-13-one], the Ki was more than 0.5 µM.
